The source of these data is US10874745B2, “Antimicrobial peptides and methods of treating gram-negative pathogens: polar and non-polar face analogs” (priority 2017, dated 2020).

The test system of data set [1] is MRSA. In words: Resistance profile of MRSA strains. The data set is classed as cell-based, Staphylococcus aureus. Further details: key: R denotes resistant; S denotes sensitive.
Data set [2] concerns MSSA. Kind of data set: Resistance profile of MSSA strains. The data set is classed as cell-based, Staphylococcus aureus. Further details: key: R denotes resistant; S denotes sensitive.
Data set [3] relates to A. baumannii strains resistant to Polymyxin B and Colistin. It counts as cell-based. Conditions: for MICGM: geometric mean, 7 A. baumannii strains resistant to polymyxin B and colistin.
Excerpt: Gram-Negative Bacterial Strains used in this Study: All the A. baumannii strains used in this study were 1) obtained from the collection of Dr. Anthony A. Campagnari at the University of Buffalo and originally isolated from different patients and organs/tissues (strain 649, blood; strain 689, groin; strain 759, gluteus; strain 884, axilla; strain 985, pleural fluid); 2) were purchased from the American Type Culture Collection (ATCC, Manassas, Va., USA) (strain ATCC 17978, fatal meningitis; and strain ATCC 19606, urine); 3) obtained from MERCK (M89941, M89949, M89951, M89952, M89953, M89955 and M89963). These seven A. baumannii strains were resistant to polymyxin B and polymyxin E (Colistin).
Measurement of Antimicrobial Activity (MIC): The minimal inhibitory concentration (MIC) is defined as the lowest peptide concentration that inhibited bacterial growth. MICs were measured by a standard microtiter dilution method in Mueller Hinton (MH) medium. Briefly, cells were grown overnight at 37° C. in MH broth and were diluted in the same medium. […] The plates were incubated at 37° C. for 24 h, and the MICs were determined.
A short description of data set [4]: Hemolytic activity. The data set is classed as cell-based, human. Conditions: 1% human erythrocytes (red blood cells), pH 7.4. How it is done:
Hemoglobin release was determined spectrophotometrically at 570 nm. […] […] […] With the peptides used in this study the inventors used the HC30/MIC ratio value to calculate the therapeutic index.

The mark [5] stands for this setting: 50% hemolysis of human red blood cells after 18 hours at 37° C., read-out: HC50.

In brackets after ≈: the same amount, converted by molar mass. Several values for one entry are separate records, joined by “and”; a condition that tells them apart may be missing. Identical values can stand only once. Like-named read-outs stand apart in the source and are kept apart here. Non-standard residues stand in square brackets, D forms with d. Residues, ends and D or L forms follow the SMILES beside them.

For `CCC[C@@H]1C[C@@H](C(=O)N[C@@H]([C@H]2O[C@H](SC)[C@H](O)[C@@H](O)[C@H]2O)[C@H](C)Cl)N(C)C1` [Clindamycin], the “Antibiotic Susceptibility” value is given as “S” in data set [1] (MRSA strain M21742 (Nose)); “S” in data set [1] (MRSA strain M21756 (Nose)); “R” in data set [1] (MRSA strain M22111 (Ear)); “S” in data set [1] (MRSA strain M22130); “S” in data set [1] (MRSA strain M22224 (Leg)); “S” in data set [1] (MRSA strain M22354). The “Antibiotic Susceptibility” value in data set [1] (MRSA strain M22360 (Labia)) was “S”; in data set [1] (MRSA strain M22424 (Arm)), “S^c”; in data set [2] (MSSA strain BL7429 (Blood)), “S”; in data set [2] (MSSA strain M21913 (Finger)) it was “S”; in data set [2] (MSSA strain M22075 (Axilla)) it was “S”; in data set [2] (MSSA strain M22097 (Neck)), “S”. The “Antibiotic Susceptibility” value in data set [2] (MSSA strain M22274 (Spine)), in data set [2] (MSSA strain M22287 (Hip)), in data set [2] (MSSA strain M22300 (Finger)), in data set [2] (MSSA strain M22312 (Finger)) and in data set [2] (MSSA strain M22315) was “S” throughout.

Take `CC[C@H]1OC(=O)[C@H](C)[C@@H](O[C@H]2C[C@@](C)(OC)[C@@H](O)[C@H](C)O2)[C@H](C)[C@@H](O[C@@H]2O[C@H](C)C[C@H](N(C)C)[C@H]2O)[C@](C)(O)C[C@@H](C)C(=O)[C@H](C)[C@@H](O)[C@]1(C)O` [Erythromycin]: the “Antibiotic Susceptibility” value in data set [1] (MRSA strain M21742 (Nose)) was “R”; in data set [1] (MRSA strain M21756 (Nose)), “S”; in data set [1] (MRSA strain M22111 (Ear)) it was “R”; in data set [1] (MRSA strain M22130), “R”; in data set [1] (MRSA strain M22224 (Leg)), “R”; in data set [1] (MRSA strain M22354) it was “R”. In addition, the “Antibiotic Susceptibility” value is listed as “R” in data set [1] (MRSA strain M22360 (Labia)); “R” in data set [1] (MRSA strain M22424 (Arm)); “S” in data set [2] (MSSA strain BL7429 (Blood)); “S” in data set [2] (MSSA strain M21913 (Finger)); “S” in data set [2] (MSSA strain M22075 (Axilla)); “S” in data set [2] (MSSA strain M22097 (Neck)). Besides, the “Antibiotic Susceptibility” value in data set [2] (MSSA strain M22274 (Spine)), in data set [2] (MSSA strain M22300 (Finger)), in data set [2] (MSSA strain M22312 (Finger)) and in data set [2] (MSSA strain M22315) was “S” throughout.

For `Cc1onc(-c2ccccc2)c1C(=O)N[C@@H]1C(=O)N2[C@@H]1SC(C)(C)[C@@H]2C(=O)O` [Oxacillin], the “Antibiotic Susceptibility” value in data set [1] (MRSA strain M21742 (Nose)), in data set [1] (MRSA strain M21756 (Nose)), in data set [1] (MRSA strain M22111 (Ear)), in data set [1] (MRSA strain M22130), in data set [1] (MRSA strain M22224 (Leg)) and in data set [1] (MRSA strain M22354) was “R” each time. Also, the “Antibiotic Susceptibility” value in data set [1] (MRSA strain M22360 (Labia)) was “R”; in data set [1] (MRSA strain M22424 (Arm)), “R^c”; in data set [2] (MSSA strain BL7429 (Blood)), “S”; in data set [2] (MSSA strain M21913 (Finger)), “S”; in data set [2] (MSSA strain M22075 (Axilla)) it was “S”; in data set [2] (MSSA strain M22097 (Neck)), “S”. For the same compound, the “Antibiotic Susceptibility” value in data set [2] (MSSA strain M22274 (Spine)), in data set [2] (MSSA strain M22287 (Hip)), in data set [2] (MSSA strain M22300 (Finger)), in data set [2] (MSSA strain M22312 (Finger)) and in data set [2] (MSSA strain M22315) was “S” each time.

In the case of `CC(=O)N[C@H](CCCCN)C(=O)N[C@H](CC(C)C)C(=O)N[C@H](CCCCN)C(=O)N[C@H](CO)C(=O)N[C@H](CC(C)C)C(=O)N[C@H](CC(C)C)C(=O)N[C@H](CCCCN)C(=O)N[C@@H](C(=O)N[C@H](CC(C)C)C(=O)N[C@H](CO)C(=O)N[C@H](CCCCN)C(=O)N[C@H](C)C(=O)N[C@H](CCCCN)C(=O)N[C@H](C)C(=O)N[C@H](C)C(=O)N[C@H](CCCCN)C(=O)N[C@H](CC(C)C)C(=O)N[C@H](CCCCN)C(=O)N[C@@H](C(=O)N[C@H](CC(C)C)C(=O)N[C@H](CC(C)C)C(=O)N[C@H](CCCCN)C(=O)N[C@H](C)C(=O)N[C@H](CC(C)C)C(=O)N[C@H](CO)C(=O)N[C@H](CCCCN)C(N)=O)[C@H](C)O)[C@H](C)O` [Peptide D84, Ac-KL(Lys)SLL(Lys)TLS(Lys)AKAAKL(Lys)TLL(Lys)ALS(Lys)-amide], the MIC in data set [3] (strain MB9941 (Table 9C)) was found to be 0.3 µM (≈ 0.86 µg/mL); in data set [3] (strain MB9949 (Table 9C)), 0.7 µM (≈ 2.01 µg/mL); in data set [3] (strain MB9951 (Table 9C)), 0.3 µM (≈ 0.86 µg/mL); in data set [3] (strain MB9952 (Table 9C)) it was 0.7 µM (≈ 2.01 µg/mL); in data set [3] (strain MB9953 (Table 9C)), 0.7 µM (≈ 2.01 µg/mL); in data set [3] (strain MB9955 (Table 9C)) it was 0.3 µM (≈ 0.86 µg/mL). The same compound had an MIC in data set [3] (strain MB9963 (Table 9C)) of 0.7 µM (≈ 2.01 µg/mL). Besides, in data set [4] (human), the HC50 at 18 h amounted to 156 µg/mL.

Take `CC(=O)N[C@H](CCCCN)C(=O)N[C@H](CC(C)C)C(=O)N[C@H](CCCN)C(=O)N[C@H](CO)C(=O)N[C@H](CC(C)C)C(=O)N[C@H](CC(C)C)C(=O)N[C@H](CCCN)C(=O)N[C@@H](C(=O)N[C@H](CC(C)C)C(=O)N[C@H](CO)C(=O)N[C@H](CCCN)C(=O)N[C@H](C)C(=O)N[C@H](CCCCN)C(=O)N[C@H](C)C(=O)N[C@H](C)C(=O)N[C@H](CCCCN)C(=O)N[C@H](CC(C)C)C(=O)N[C@H](CCCN)C(=O)N[C@@H](C(=O)N[C@H](CC(C)C)C(=O)N[C@H](CC(C)C)C(=O)N[C@H](CCCN)C(=O)N[C@H](C)C(=O)N[C@H](CC(C)C)C(=O)N[C@H](CO)C(=O)N[C@H](CCCN)C(N)=O)[C@H](C)O)[C@H](C)O` [Peptide D85, Ac-KL(Orn)SLL(Orn)TLS(Orn)AKAAKL(Orn)TLL(Orn)ALS(Orn)-amide]: the MIC in data set [3] (strain MB9941 (Table 9C)) came out at 0.7 µM (≈ 1.95 µg/mL); in data set [3] (strain MB9949 (Table 9C)), 0.7 µM (≈ 1.95 µg/mL); in data set [3] (strain MB9951 (Table 9C)) it was 0.7 µM (≈ 1.95 µg/mL); in data set [3] (strain MB9952 (Table 9C)), 0.4 µM (≈ 1.11 µg/mL); in data set [3] (strain MB9953 (Table 9C)) it was 0.4 µM (≈ 1.11 µg/mL); in data set [3] (strain MB9955 (Table 9C)), 0.4 µM (≈ 1.11 µg/mL). The compound also had an MIC in data set [3] (strain MB9963 (Table 9C)) of 0.4 µM (≈ 1.11 µg/mL). Further, the HC50 at 18 h in data set [4] (human) was found to be 406 µg/mL.

With `CC(=O)N[C@H](CCCCN)C(=O)N[C@H](CC(C)C)C(=O)N[C@H](CCCNC(=N)N)C(=O)N[C@H](CO)C(=O)N[C@H](CC(C)C)C(=O)N[C@H](CC(C)C)C(=O)N[C@H](CCCNC(=N)N)C(=O)N[C@@H](C(=O)N[C@H](CC(C)C)C(=O)N[C@H](CO)C(=O)N[C@H](CCCNC(=N)N)C(=O)N[C@H](C)C(=O)N[C@H](CCCCN)C(=O)N[C@H](C)C(=O)N[C@H](C)C(=O)N[C@H](CCCCN)C(=O)N[C@H](CC(C)C)C(=O)N[C@H](CCCNC(=N)N)C(=O)N[C@@H](C(=O)N[C@H](CC(C)C)C(=O)N[C@H](CC(C)C)C(=O)N[C@H](CCCNC(=N)N)C(=O)N[C@H](C)C(=O)N[C@H](CC(C)C)C(=O)N[C@H](CO)C(=O)N[C@H](CCCNC(=N)N)C(N)=O)[C@H](C)O)[C@H](C)O` [Peptide D87, Ac-KL(Arg)SLL(Arg)TLS(Arg)AKAAKL(Arg)TLL(Arg)ALs(Arg)-amide] (Ac-[dK][dL][dR][dS][dL][dL][dR][dT][dL][dS][dR][dA][dK][dA][dA][dK][dL][dR][dT][dL][dL][dR][dA][dL][dS][dR]-NH2), the 50% haemolytic concentration (HC50) at 18 h in data set [4] (setting [5]) is 12 µg/mL.

As to `CC(=O)N[C@H](CCCCN)C(=O)N[C@H](CC(C)C)C(=O)N[C@H](CCCCN)C(=O)N[C@H](CO)C(=O)N[C@H](CC(C)C)C(=O)N[C@H](CC(C)C)C(=O)N[C@H](CCCCN)C(=O)N[C@@H](C(=O)N[C@H](CC(C)C)C(=O)N[C@H](CO)C(=O)N[C@H](CCCCN)C(=O)N[C@H](C)C(=O)N[C@H](CCCCN)C(=O)N[C@H](C)C(=O)N[C@H](C)C(=O)N[C@H](CCCCN)C(=O)N[C@H](CC(C)C)C(=O)N[C@H](CCCCN)C(=O)N[C@@H](C(=O)N[C@H](CC(C)C)C(=O)N[C@H](CC(C)C)C(=O)N[C@H](CCCCN)C(=O)N[C@H](C)C(=O)N[C@H](CC(C)C)C(=O)N[C@H](CO)C(=O)N[C@H](CO)C(N)=O)[C@H](C)O)[C@H](C)O` [Peptide D101, Ac-KL(Lys)SLL(Lys)TLS(Lys)AKAAKL(Lys)TLL(Lys)ALSS-amide], the HC50 at 18 h in data set [4] (setting [5]) was 279 µg/mL and > 104 µM.

Take `CC(=O)N[C@H](CCCCN)C(=O)N[C@H](CC(C)C)C(=O)N[C@H](CCCCN)C(=O)N[C@H](CO)C(=O)N[C@H](CC(C)C)C(=O)N[C@H](CC(C)C)C(=O)N[C@H](CCCCN)C(=O)N[C@@H](C(=O)N[C@H](CC(C)C)C(=O)N[C@H](CO)C(=O)N[C@H](C)C(=O)N[C@H](C)C(=O)N[C@H](CCCCN)C(=O)N[C@H](CCCCN)C(=O)N[C@H](CCCCN)C(=O)N[C@H](CCCCN)C(=O)N[C@H](CC(C)C)C(=O)N[C@H](C)C(=O)N[C@@H](C(=O)N[C@H](CC(C)C)C(=O)N[C@H](CC(C)C)C(=O)N[C@H](CCCCN)C(=O)N[C@H](C)C(=O)N[C@H](CC(C)C)C(=O)N[C@H](CO)C(=O)N[C@H](CO)C(N)=O)[C@H](C)O)[C@H](C)O` [Peptide D103, Ac-KL(Lys)SLL(Lys)TLSAAK(Lys)(Lys)KLATLL(Lys)ALSS-amide] (Ac-[dK][dL][dK][dS][dL][dL][dK][dT][dL][dS][dA][dA][dK][dK][dK][dK][dL][dA][dT][dL][dL][dK][dA][dL][dS][dS]-NH2): the HC50 at 18 h in data set [4] (setting [5]) is 381 µg/mL and 135 µM.

With Colistin [reference compound], the MICGM in data set [3] is >28 µM. Besides, the MIC in data set [3] (strain M89941), in data set [3] (strain M89949), in data set [3] (strain M89951), in data set [3] (strain M89952), in data set [3] (strain M89953) and in data set [3] (strain M89955) was >28 µM in each case. The MIC in data set [3] (strain M89963) is >28 µM.

Regarding Polymyxin B [reference compound], the MICGM in data set [3] is >25 µM. For the same compound, the MIC in data set [3] (strain M89941), in data set [3] (strain M89949), in data set [3] (strain M89951), in data set [3] (strain M89952), in data set [3] (strain M89953) and in data set [3] (strain M89955) was >25 µM throughout. Besides, the MIC in data set [3] (strain M89963) is >25 µM.
